The results in this text go back to ChEMBL document CHEMBL1129949, “Correlation of antimalarial activity of artemisinin derivatives with binding affinity with ferroprotoporphyrin IX” (J Med Chem, 1997).

In this assay the test system is Plasmodium falciparum. Put plainly: Mean of EC50 values for FM3A cells/ mean of EC50 values for Plasmodium falciparum. The class given is functional, organism-based.
With `CC1C(OC(=O)CCC(=O)O)O[C@@H]2O[C@]3(C)CC[C@H]4[C@H](C)CC[C@@H]1[C@@]24OO3` (some centres undefined), the half-inhibitory concentration (IC50) stood at 0.62 nM.

With `CC1C(O)O[C@@H]2OC3(C)CC[C@H]4[C@H](C)CC[C@@H]1[C@@]24OO3` (single isomer, unassigned), the IC50 worked out at 1.1 nM. As for `COC1O[C@@H]2OC3(C)CC[C@H]4[C@H](C)CC[C@@H](C1C)[C@@]24OO3` (single isomer, unassigned), the figure is 4.1 nM; as for `C[C@@H]1CC[C@H]2C(Cn3ccnc3)C(O)O[C@@H]3OC4(C)CC[C@@H]1[C@]32OO4` (single isomer, unassigned), 0.39 nM.

As to `CCOC1O[C@@H]2OC3(C)CC[C@H]4[C@H](C)CC[C@@H](C1C)[C@@]24OO3` (single isomer, unassigned), the IC50 was 24 nM.

For `C[C@@H]1CC[C@H]2C(Cn3ccnc3)C(=O)O[C@@H]3OC4(C)CC[C@@H]1[C@]32OO4` (single isomer, unassigned), the IC50 came out at 32 nM.

As for `C[C@@H]1CC[C@H]2C(CSc3ccccc3)C(=O)O[C@@H]3OC4(C)CC[C@@H]1[C@]32OO4` (single isomer, unassigned), 20 nM corresponded to half-maximal inhibition (IC50). As for `C=C1C(=O)O[C@@H]2OC3(C)CC[C@H]4[C@H](C)CC[C@@H]1[C@@]24OO3` (single isomer, unassigned), the figure is 30 nM; as for `C[C@@H]1CC[C@H]2[C@@H](C)C(=O)O[C@@H]3O[C@@]4(C)CC[C@@H]1[C@]32OO4` [ARTEMISININ], 5 nM.
